# According to patent publication US10517870B2, “Aryl substituted bicycle heteroaryl compounds” (Bristol-Myers Squibb Company, priority 2015, dated 2019):
# How the values were obtained:
# [1] = system: platelet aggregation induced by gamma-thrombin; experiment: Gamma thrombin induced platelet aggregation assay in platelet rich plasma (PRP); type: cell-based; conditions: human platelet rich plasma
# Text: The compounds of the current invention can be tested in vitro for their ability to inhibit platelet aggregation induced by gamma-thrombin as shown in Example C. Gamma-thrombin, a proteolytic product of alpha-thrombin which no longer interacts with PAR1, selectively cleaves and activates PAR4 (Soslau, G. et al., “Unique pathway of thrombin-induced platelet aggregation mediated by glycoprotein Ib”, J. Biol. Chem., 276:21173-21183 (2001)). Platelet aggregation can be monitored in a 96-well microplate aggregation assay format or using standard platelet aggregometer. […]
# The ability of the compounds of the current invention to inhibit platelet aggregation induced by gamma-thrombin was tested in a 96-well microplate aggregation assay format. […] The plate was then placed into a SpcctraMax® Plus Plate Reader (Molecular Devices) at 37° C. Platelet aggregation was monitored at a wavelength of 405 nm using a kinetic analysis mode. […] Inhibition of platelet aggregation (IPA) was calculated based on the formula: % IPA=(100−100*[ODcompound−ODminimum]/[ODmaximum−ODminimum]). The IC50 value of the test compound was calculated by fitting the % IPA values to the one-site concentration response equation: Y=A+(B−A)/{1+(C/X)^D]}, using XLfit for 32 bit Excel® Version 2 Build 30 (ID Business Solutions Limited).
# Caski (HPV16+) cells = experiment: Cell proliferation/viability assay, Caski cells; type: cell-based; conditions: Homo sapiens, Ca-Ski, 96 h, 4 days
# Method: Caski (catalog number CRL-1550), SiHa (catalog number HTB-35), C33A (catalog number HTB-31), Saos-2 (ATCC HTB-85), and Hela (catalog number CCL-2) cells were obtained from the American Type Culture Collection (ATCC). The human cervical carcinoma cell lines Caski. SiHa, Hela and C33A, and the human osteosarcoma cell line Saos-2, and the human keratinocyte cell line HaCaT were cultured in Dulbecco's Modified Eagle Medium (DMEM, Invitrogen catalog number 11965-092) supplemented with 10% fetal bovine serum. The colorectal carcinoma cell line HCT-116 was cultured in Roswell Park Memorial Institute-1640 Medium (Invitrogen catalog number 11875-093) supplemented with 10% FBS. All cells were incubated at 37° C. in a humidified atmosphere with 5% CO2 in air. To establish the SCHPV-18 cell line, one million primary neonatal human foreskin keratinocytes (Invitrogen, catalog no. C-001-5C), cultured in KBM Gold-keratinocvte cell basal medium (Lonza, catalog no. 192060), were electroporated with 5 μg HPV-18 plasmid DNA (ATCC catalog no. 45152D) using the Amaxa Nucleofector II on setting T-007. Cells were co-transfected with 2 μg plasmid pZSGreen1-N1 (Clontech catalog no. 632448) encoding G418 resistance, and cells were selected for four days in 100 μg/ml G418, after which selection was removed. Cells were maintained in culture six months prior to compound testing. Integration of the HPV 18 genome was confirmed by Southern blot. Control cells transfected in parallel with pZSGreen1-N1 alone became senescent four days after selection and the culture could not be expanded. SCHPV-18 cells were maintained in E medium (Fehrmann F, Laimins L A. Human papillomavirus type 31 life cycle: methods for study using tissue culture models. Methods Mol Biol 2005; 292:317-330).
# For proliferation assays, cells were plated in white polystyrene 96-well plates (Costar catalog number 3917) for CellTiter Glo viability assays or 96-well special optics plates (Costar cat #3614) for CellTiter Blue viability assays. Cells were plated in the appropriate growth medium without antibiotics. Two hours after cell plating, a 200× compound stock diluted in DMSO was added to a final concentration of 0.5%. Plates were incubated at 37° C., for 4 days and then cell viability was assessed using either CellTiter Blue (Promega catalog number G8081) or CellTiter Glo (Promega catalog number G7572) according to the manufacturer's instructions. For the CellTiter Blue viability assay, data was collected using the SpectraMax Gemini EM (Molecular Devices) with an excitation wavelength of 530 nm and emission wavelength of 590 nm. For the CellTiter Glo viability assay, data was collected using the Envision Mulitlabel Reader (Perkin Elmer catalog number 2104-0010). To calculate IC50 and EC50 values, percent inhibition curves were fit using a four-parameter logistic formula [y=A+[…]], where A and B denote minimal and maximal % inhibition, respectively, C is the IC50 value, D is the Hill slope, and x represents compound concentration.
# Table C, below, sets out the results obtained employing various compounds of the invention tested for their effects on proliferation of such cells. Caski or SiHa cells, transformed by HPV 16, Hela cells, transformed by HPV 18, or HPV-negative control cell lines (Saos-2 or C33a) were treated with various compounds. […] Unlike the HPV-negative Saos-2 or C33a cell lines, the HPV-transformed cell lines rely on the presence of HPV for their continued proliferation. Therefore, a comparison of IC50 values from HPV-transformed cell lines with IC50 values obtained from HPV-negative cell lines can be used to test for compound selectivity.
structure (smiles),measurement,setting,value
"COc1ccc(-c2cc(C)cc3nc(OC(F)F)cnc23)cc1 [Example 6, 2-(difluoromethoxy)-5-(4-methoxyphenyl)-7-methylquinoxaline]",IC50,[1],> 30 µM
same,IC50,Caski (HPV16+) cells,7.1 µM
